# In patent US20190136188A1, “4HPR AND ITS USE IN THE CULTURING OF HEMATOPOIETIC STEM CELLS” (UNIVERSITY HEALTH NETWORK, priority 2016, published 2019):
# How the values were obtained:
# sorted HSC, MPP or GMP = test: Colony forming assay (CFC) in methylcellulose; type: cell-based, human
# Protocol: (A) Dose response of varying [4HPR] in CB at day 3 post-treatment showing 2 uM 4HPR gives the relative half maximal number of viable cells compared to control. All experiments following are at this 4HPR concentration unless otherwise indicated. […] (C) LC/MS was used to profile the ceramide (Cer), dihydroceramide (dhCer), sphingosine (sph), dihydrosphingosine (dhSph), S1P and dihydro-S1P (dhS1P) levels in lin− CB cells cultured for 8 days with control or 4HPR (n=2). […] (D) HSC, MPP, or GMP were sorted into methylcellulose for CFC assays in the presence of control or 4HPR and colonies were blindly scored following 10-11 days for (D) colonies/100 cells and ((E) colony distribution are shown (n=7). (F) Flow cytometry for erythroid (GlyA+) and monocytic (CD14+) markers in live cells from pooled CFC colonies were scored (n=6). (F) Relative number of colonies from CFC assays comparing the effect of 4HPR or ATRA (n=3) on sorted HSC, MPP or GMP. […]
# (§1) (A) Representative flow cytometry analysis of the primitive hierarchy within the CD34+ fraction of day 8 cultured lin− CB cells after the indicated treatments for CD90 and CD45RA, n=4. B) The distribution of cultured CD34+CD90+CD45RA− (cHSC), CD34+CD90−CD45RA− (cMPP), and […] for the indicated conditions at day 8 of ex vivo culture following CD34 enrichment. Statistical significance assayed through unpaired t-test relative to vehicle control (Ctrl). The relative number of colonies resulting from (C) HSC or (D) MPP grown in methylcellulose CFC assays in the presence of vehicle control (−) or the indicated combination of 2 uM 4HPR, or 35 nM UM171 or 0.5 uM SR1 at 10 days. Statistical significance is calculated via unpaired t-test relative to ctrl (black) or to the presence of absence of 4HPR treatment for UM171 or SR1.
# However, the functional consequence of 4HPR treatment on human cord blood primitive cells is unknown. A dose titration of 4HPR was performed on lineage-depleted CB (lin-CB) cells and 2 uM was calculated to give half maximal cell viability at 3 days post-treatment compared to vehicle control (ctrl), a concentration reported in cell lines to antagonize DEGS1 enzymatic function, and used for all subsequent experiments unless otherwise indicated (FIG. 1A). […] Next, we utilized the colony forming assay (CFC) for in vitro progenitor function to determine if 4HPR treatment alters functional output from isolated populations of CB HSPC. […] This is unsurprising as retinoic acid signaling is a potent differentiation signal in hematopoietic cells. Thus, 4HPR inhibition of sphingolipid homeostasis selectively enhances cloning efficiency in human HSC.
# Given the CD34 compartment where functional HSC should reside following ex vivo expansion is critical to blood production, we asked if there were immunophenotypic alterations following 4HPR treatment. StemRegenin-1 (SR1) or UM171 are two molecules whose action on CB has been reported to expand CD34+ cells dramatically and lead to increase reconstitution in xenotransplantation (Fares, et al Science, 2014: Boitano, Science, 2010). We sought to ask if limiting CD34+ expansion with 4HPR treatment is synergistic with these known agonists of CB ex vivo expansion. Lin− CB were cultured with these 3 small molecules alone or in combination for 8 days and the CD34 compartment was isolated and analyzed by flow cytometry further with CD90 and CD45RA to look at immunophenotypic cultured HSC (cHSC), MPP (cMPP) and committed progenitors (cProg). These populations were sorted from lin-CB at […] following expansion and transplanted into NSG mice for 16 weeks to ascertain that cProg cells are committed progenitors, while cHSC and cMPP retain multipotency following culture (FIG. 8A, B). […]
# lin- CB cells = test: 8 day ex vivo expansion culture of lin- CB, flow cytometry; type: cell-based, human
# Text: (A) Experimental scheme (B) Representative FACS analysis data of in vitro culture for 16 HSC dose time course (n=3). The number of (C) viable cells, (D) CD15+ myeloid cells, (E) GlyA+ erythroid cells, and (F) CD34+ primitive cells measured for the 16 LTRC dose with HTS flow cytometry analysis at day 8 post-treatment for vehicle control or 4HPR prior to xenotransplantation (n=5 biological replicates, 4 in technical triplicate, marked with different symbols). (G) Human CD45+ engraftment at 16 weeks post transplant in injected femur (n=4, 5 mice/biological experiment). Lineage analysis of control or 4HPR transplanted mice from FIG. 5G for (H) B lymphoid, (I) myeloid, (J) erythroid, and (K) primitive CD34+ at the 16 LTRC dose. (L) CD45+ cells were isolated from 5 biological experiments of the 16 LTRC dose primary mice and transplanted at limiting doses into secondary recipients for 16 weeks. Human CD45+ marking of >0.1% was considered positive for secondary engraftment. Limiting dilutation analysis was performed using ELDA software and the long-term repopulating cell (LTRC) frequency for each biological replicate plotted and the average LTRC frequency calculated.
# as §1
# (A) The number of cells following 8 days of ex vivo culture at the 16 LTRC dose grown as in FIG. 5A for the indicated drug treatments (n=2). […] (2 biological replicates) (E) CD45+ cells were isolated from 2 biological experiments of the 16 LTRC dose primary mice and transplanted at limiting doses into secondary recipients for 16 weeks. Human CD45+ marking of >0.01% was considered positive for secondary engraftment. Limiting dilutation analysis was performed using ELDA software and the long-term repopulating cell (LTRC) frequency for each biological replicate plotted and the average LTRC frequency calculated.
# To determine if 4HPR preserves functional HSC in CB liquid culture, we devised an experimental protocol to test the effect of 4HPR treatment in short-term ex vivo expansion culture on repopulation in serial NSG xenotransplantation to functionally read out LT-HSC (FIG. 5A). Briefly, lin− CB (enriched for CD34+) is cultured ex vivo in an in vitro limiting dilution assay (LDA) fashion based on 3 initial cell doses with high (16 functional HSC or LTRC), medium (3.2 LTRC) and limiting (0.65 LTRC) in xenotransplantation. All expanded cells are unbiasly transplanted via intrafemoral injection into NSG mice after 8 days of culture where drug is added every 2 day and reconstitution is assayed 16 weeks following transplantation. […] Human CD45+ cells are isolated from primary mice transplanted with the 16 LTRC dose and serially transplanted in LDA fashion to enumerate functional HSC in the gold-standard for long-term repopulating cell (LTRC). Remarkably, 4HPR treated cells show a 3 fold increase in SRC over control treatment through 32 weeks of xenotransplantation with an average LTRC frequency of 1e6 CD45+ cells (FIG. 5L, n=5, p=0.02). […] Thus, 4HPR acts to preserve LT-HSC function in ex vivo expansion despite limiting total CD34+ cells during culture. […]
# [1] = 8 days culture, 4HPR vs vehicle control
smiles,measurement,setting,value
"CC1=C(/C=C/C(C)=C/C=C/C(C)=C/C(=O)Nc2ccc(O)cc2)C(C)(C)CCC1 [4HPR, N-(4hydroxyphenyl)retinamide]",relative cloning efficiency from HSC,"sorted HSC, MPP or GMP; 2 uM 4HPR in combination with either UM171 or SR1, to levels similar to 4HPR alone",increased relative cloning efficiency from HSC
same,colony distribution (colony type),"sorted HSC, MPP or GMP; HSC and MPP samples, 2 uM 4HPR",more likely to be granulocyte-macrophage (GM) colonies
same,increase of colony output over control treatment,"sorted HSC, MPP or GMP; HSC, 2 uM 4HPR, colonies scored after 10-11 days",50%
same,increase of colony output over control treatment,"sorted HSC, MPP or GMP; MPP or GMP, 2 uM 4HPR",but not MPP or GMP
same,myeloid (CD14) and erythroid (GlyA) output of cells from CFC assays,"sorted HSC, MPP or GMP; flow cytometry of pooled CFC colonies, 2 uM 4HPR",enhances myeloid output at the expense of erythroid differentiation
same,erythroid differentiation in culture,lin- CB cells; [1],decreased erythroid differentiation
same,immunophenotypic CD34+ cells in culture,lin- CB cells; [1],fewer immunophenotypic CD34+ cells
same,myeloid differentiation in culture,lin- CB cells; [1],enhanced myeloid differentiation
same,cHSC in the CD34 compartment,"lin- CB cells; day 8, relative to control",trends to increasing cHSC
same,cMPP in the CD34 compartment,"lin- CB cells; day 8, relative to control",increasing cMPP
same,percentage of cProg cells in the CD34 compartment,"lin- CB cells; day 8, relative to control",significantly limits the percentage of (cProg) cells
same,formation of cProg cells,"lin- CB cells; lin- CB as well as HSC and MPP, dominant over UM171 or SR1 singularly and in combination",limits the formation of cProg cells
